Laboratory results taken from patent US9265774B2, “Methods, compounds and pharmaceutical compositions for treating anxiety and mood disorders” (New York University, priority 2011, dated 2016).
Like-named read-outs stand apart in the source and are kept apart here.

Legend:
[1] = test system: immobility in tail suspension test; experiment: Tail suspension test (TST); format: in vivo, mice; conditions: intracerebral administration
Procedure: (§1) In the RFS study, mice were subjected to 4 daily 15 min swims as described above and were injected i.p. with either vehicle or dp6FNE (3 mg/kg) 15 min prior to the 5th swim. In the TST study, animals were injected similarly before a 6 min test. […] The animals were anesthetized and perfused for immuno-histochemistry 70 min after the start of the swim or tail suspension. Brains were processed as described previously for double-label immunofluorescent Fos/tyrosine hydroxylase staining of all sections through the LC and for single-label Fos staining through the full PVH (Stone et al., Brain Res (2009) 1291: 21-31).
To determine if dp6FNE was active in a more traditional test of antidepressant activity, it was given as above 15 min prior to a tail suspension test.
(§2) The first test involves an acute stress-induced model of depression (Steru, et al., Psychopharmacology 1985; 85: 367-370) whereas the second, a more prolonged, chronic depression that is more akin to chronic human depression (Stone, et al., Pharmacol Biochem Behav 2008; 91: 190-195).

[2] = test system: locomotor behavior in an open field; experiment: Open field locomotor behavior after ivt. 6FNE or i.p. dp6FNE versus amphetamine; format: in vivo, mice
Procedure: 6FNE and dp6FNe were tested for their effects on motor activity by measuring locomotor behavior in an open field after either ivt. (6FNE) or i.p. injection (dp6fNE) in mice. These mice were compared to animals that were either non handled or received either a vehicle ivt injection or an i.p. injection of the stimulant, amphetamine (5 mg/kg). The results are shown in FIG. 6 and in (Stone, Lin Y, Sarfraz Y, and Quartermain D, 2011). […] Furthermore, the increase in activity after 6FNE was minor in comparison with the bona fide stimulant, amphetamine which produced a 10 fold increase. The small increase over the vehicle group therefore appears to be the result of a reduction of the stress caused by the handling and restraint for the ivt. injection which is in agreement with the reduced activation of brain stress circuits discussed above. This interpretation was supported by an examination of the time in the center or risky area of the field spent by the various groups. […] A slight reduction in motor behavior at the low doses (0.1-0.3 mg/kg) were, however, observed.

[3] = test system: repeated open-space swim model; experiment: Repeated open-space (forced) swim test; format: in vivo, mice; conditions: for antidepressant activity in the repeated open-space forced swim test: intracerebral administration
Text: as §2

[4] = prazosin: at 0.2 mg/kg in mice; cited from earlier work
[5] = test system: model of chronic depression in mice (repeated forced swim); conditions: for acute antidepressant (anti-immobility) effect in the RFS: single acute i.p. administration minutes before the swim, low doses, prazosin 0.2 mg/kg present
Text: We administered the pro-drugs shortly before one or more tests of antidepressant activity including reversal of immobility during tail suspension and forced swimming and attenuation of anhedonia produced by endotoxin administration. […] (Stone et al., Eur. J. Pharmacol. (2001) 420: 97-102) Because dp6FNE like all other antidepressants has an initial anorexic effect and acutely reduces the consumption of sweet solutions, in the test for anhedonia it was necessary to employ a non-nutritive hedonic behavior, FUST (sniffing of estrous female urine). […] (Stone et al., Neuropsychopharmacology (2011) 14: 319-331); Sun et al., J. Neurosci. Methods (2003) 126:35-40; Sun et al., Behavioral Pharmacology (2008) 19: 334-338).
Mice were swum for 15 min/d on 4 d and tested for the response to acute i.p dp6FNE (1 or 3 mg/kg) alone or in combination with 8-OHDPAT (0.05 mg/kg) and corticosterone (3 mg/kg) on the 5th and final swim (15 min after drug administration). […] Comparison groups receiving currently available antidepressants were treated acutely i.p. or chronically (14 d osmotic pumps) with either desmethylimipramine (DMI) (10 mg/kg), fluoxetine (5 mg/kg), escitalopram (5 mg/kg), bupropion (10 mg/kg) or ketamine (10 mg/kg).
Although corticosteroids are well known to produce depression (Gourley et al., Biol Psychiatry (2008) 64: 884-890), this occurs at high doses only. […] Mice were swum for 3 d and given either vehicle (0.8% ethanol) or corticosterone (12.5 μg/ml) in their drinking water.
As described in Example 4a, the cocktail was tested in a mouse model of chronic depression (RFS).

[6] = test system: home cage exploration in handling-stressed mice; experiment: Home cage activity after handling and injection stress; format: in vivo
Procedure: FIG. 15 depicts the effect of acute i.p. dp6FNE (1 mg/kg) or cirazoline (0.1 mg/kg), (N=1), on home cage activity in terms of rearing and ambulation, Veh (N=12).
6FNE has a more rapid and/or greater antidepressant effect than either of these agonists because 6FNE is the only known selective α-agonist that has full efficacy at all brain α-adrenoceptors and 6FNE works within minutes (Stone, et al. 2011) whereas cirazoline was given to mice over several months prior to testing in one model (forced swim test) in the above experiment by Doze et al, 2009. […] (Stone, E A, Lin Y, Quartermain, D, Unpublished results)
It is known that peripheral administration of α1-agonists without phentolamine impairs exploratory behavior in the open field (Yang, et al., J Pharmacol exp Ther 1990; 255: 1064-1070).

PVH Fos expression = experiment: Fos expression in the PVH, RFS model, corticosterone in the drinking water; format: in vivo, mice; conditions: versus veh
Text: (§3) GR agonists such as corticosterone and dexamethasone are well known to produce selective inhibition of the neural activity of parvocellular PVH neurons at low doses (Keller-Wood et al., Endo Rev (1982) 5: 1-24; Dallman et al., Ann N Y Acad Sci 91987) 512: 402-414). This effect was shown in a previous experiment on the effects of corticosterone in the drinking water on Fos expression in the PVH or piriform cortex of mice subjected to the RFS model (Stone et al., eur J Pharmacol (2007) In Press). The animals were swum a total of 3 times and on the night prior to the 3rd swim given corticosterone at 12.5, 25 or 50 μg/ml in the drinking water. These concentrations produced nighttime intakes of 4.6, 10.7 and 14.2 mg/kg. The mice were given the 3rd and final swim the following morning, 0800-1000 h, and were anesthetized and perfused 70 min after the start of the swim for immunohistochemical assay of Fos in the PVH and in the piriform cortex, a control region that supports positively motivated behavior (Carr et al., Neuropsychopharmacology (2010) 35: 752-763; Stone et al., Neurosci Biobehav Revs (2008a) 32: 508-524).

[7] = test system: Fos expression in the piriform cortex; experiment: Fos expression in the piriform cortex, RFS model, corticosterone in the drinking water; format: in vivo, mice; conditions: versus veh
Text: as §3

[8] = test system: open field behavior (locomotion and center square occupancy); experiment: Open field motor activity and anxiety after capture and injection; format: in vivo, mice; conditions: corticosterone 12.5 μg/ml in drinking water (4.6 mg/kg)
Procedure: To determine if the agonists had motor stimulating or sedative actions, mice were allowed to explore an open field undisturbed for 60 min and were then captured and injected i.p. with either vehicle or the full “cocktail” of the 3 […] (dp6FNE 1 mg/kg; 8-OHDPAT, 0.05 mg/kg; corticosterone, 3 mg/kg, praz, 0.2 mg/kg) before being replaced in the field for a final 15 min. The vehicle injection (praz present) reduced subsequent locomotion and time spent in the center of the field by −76.8±11.0% and −78.5±12.4%, respectively, from preceding levels, indicating an anxiogenic effect of the injection procedure. The injection of the “cocktail”, however, rescued both locomotion and center time to −12.9±1.9% and −25.3±6.9%, respectively, indicating a strong anti-anxiety effect with no motor stimulation or sedation (FIG. 9).
In addition to its antidepressant property, the cocktail is also effective in producing a significant antianxiety effect without sedation in these animals. The applicants have tested for this effect using an open field in which animals are placed and permitted to explore freely after which they are captured, restrained briefly for an ip. injection of saline and returned to the field for a final 15 min. […]

[9] = oral; cited from earlier work
Fos expression in the LC = Fos expression in the LC during the RFS model; format: in vivo, mice; conditions: prazosin 0.2 mg/kg; vehicle animals compared with previous results without prazosin
Procedure: as §1, with “21-31). […] In the tail suspended mice the analogous reductions were 53.5±7.2% (LC) and 36.7±3.1 (PVH). […] These findings thus indicate that a dose of […] dp6FNE that has preferential inhibitory effects on the LC during depression exists.” for “21-31).”

[10] = corticosterone 25 μg/ml in drinking water, nighttime intake 10.7 mg/kg
[11] = corticosterone 50 μg/ml in drinking water, nighttime intake 14.2 mg/kg
[12] = corticosterone 12.5 μg/ml in drinking water, nighttime intake 4.6 mg/kg, mice swum for 3 d, versus vehicle

NCC(O)c1cc(O)c(O)cc1F (stereo not drawn) [6FNE, 6-fluoronorepinephrine]
antidepressant activity in the tail suspension test [1]: equally effective | time in the center of the field ([2]; 6FNE ivt. or dp6FNE i.p.): restored this behavior back to the level of the non-handled controls | effect on motor activity in the open field ([2]; mouse, in vivo, ip): no change in activity compared to the non-handled animals | antidepressant activity in the repeated open-space forced swim test [3]: effective | passage of the blood brain barrier [4]: does not pass the blood brain barrier

CNCCCN1c2ccccc2CCc2ccccc21 [DMI, desmethylimipramine]
acute effect in the repeated open-space swim test ([3]; acute i.p., dp6FNE at 1, 3 and 10 mg/kg given along with phentolamine 5 mg/kg i.p.): complete lack of effect

CC(N)Cc1ccccc1 (stereo not drawn) [amphetamine]
increase in activity in the open field ([2]; amphetamine 5 mg/kg i.p.): 10 fold

CCC1(c2cnc[nH]2)Cc2ccccc2C1 [atipamezole]
effect of receptor blockade on the antidepressant actions of dp6FNE in the RFS ([5]; mouse, in vivo): significantly reversed the antidepressant actions of pro-drug in the RFS

c1ccc(C2CC2)c(OCC2=NCCN2)c1 [cirazoline]
effect by itself on movement and motor behavior in the home cage ([6]; cirazoline i.p., unpublished results): pronounced inhibition of movement and motor behavior | behavioral inhibition in the home cage following handling and injection stress ([6]; i.p., dp6FNE (1 mg/kg) in the presence of phentolamine, cirazoline (0.1 mg/kg)): not effective in reducing behavioral inhibition

C[C@]12C[C@H](O)[C@H]3[C@@H](CCC4=CC(=O)CC[C@@]43C)[C@@H]1CC[C@@H]2C(=O)CO [corticosterone]
reduction of PVH Fos expression (PVH Fos expression; corticosterone 12.5 μg/ml in drinking water, nighttime intake 4.6 mg/kg, 70 min after start of 3rd swim): −51.7±17% | reduction of PVH Fos expression (PVH Fos expression; [10]): −66.8±8.5% | reduction of PVH Fos expression (PVH Fos expression; [11]): −63.7±11.0% | increase of Fos expression in the piriform cortex ([7]; corticosterone 12.5 μg/ml in drinking water, nighttime intake 4.6 mg/kg): +203.3±78.6% | increase of Fos expression in the piriform cortex [7, 10]: +175.3±53.9% | increase of Fos expression in the piriform cortex [7, 11]: +193.3±67.4% | increase of distance swum [5, 12]: +107.7±15.8% | reduction in immobility [5, 12]: −36.6±5.7% | acute antidepressant (anti-immobility) effect in the RFS [5]: rapid and effective preclinical antidepressant actions | acute antidepressant (anti-immobility) effect in the RFS ([5]; listed as corticosteroid): immediate and effective antidepressant action | open field locomotion [8]: No effect

C[C@@H]1C[C@H]2[C@@H]3CCC4=CC(=O)C=C[C@]4(C)[C@@]3(F)[C@@H](O)C[C@]2(C)[C@@]1(O)C(=O)COP(=O)(O)O [dexamethasone sodium phosphate]
bioavailability [9]: approximately 0.5

Cc1cccc([C@H](C)c2cnc[nH]2)c1C [dexmedetomidine]
antidepressant activity in the tail suspension test [1]: equally effective | antidepressant activity in the repeated open-space forced swim test [3]: only 6FNE was effective

CNC1(c2ccccc2Cl)CCCCC1=O (stereo not drawn) [ketamine]
acute antidepressant (anti-immobility) effect in the RFS [5]: None of the currently available antidepressants that were tested, including ketamine, appeared acutely effective

COc1cc2nc(N3CCN(C(=O)c4ccco4)CC3)nc(N)c2cc1OC [prazosin]
effect of the antagonist on LC or PVH Fos (Fos expression in the LC): no effect | effect of receptor blockade on the antidepressant actions of dp6FNE in the RFS ([5]; high dose systemic prazosin or α2-antagonist atipamezole given with dp6FNE): significantly reversed the antidepressant actions of pro-drug in the RFS
